Source: patent US8202871B2, “Indol-2-one derivatives disubstituted in the 3-position, preparation thereof and therapeutic use thereof” (Sanofi-Aventis, priority 2007, dated 2012)

What was measured:
ghrelin receptor = biological target: T1, ghrelin receptor (Rattus norvegicus, UniProt O08725); test: Antagonism of ghrelin on electric-field-stimulated contractions of isolated rat gastric fundus strips (headed 'In Vivo Test'); conditions: ghrelin 0.1 nM-1 μM concentration-response curves with and without antagonist, contact time 30 minutes, read-out: antagonist activity towards the ghrelin receptor, IC50
T1 construct: Strips of approximately 1 cm (5 mm wide) of gastric fundus were cut out along the longitudinal axis; from tissue; host or cells: rat gastric fundus strips
Procedure: The compounds according to the invention underwent in vivo studies.
Male Crl CD BR rats (Charles River, Italy) weighing 150-175 g were housed in a chamber at regulated temperature (22±1° C.) and humidity (55±10%) and with a 12-hour lightness-darkness cycle, for at least 7 days before their use. Feed and water were available ad libitum. The feed was removed 18 hours before sacrificing the animals. The rats were sacrificed by cervical dislocation, and the stomach was removed surgically, opened along the shorter curvature and placed in a Krebs solution (of composition (mM): 118.4 NaCl; 4.7 KCl; 2.5 CaCl2; 3.7 NaH2PO4; 1.2 MgSO4; 25 NaHCO3; 5.6 glucose). The animals were cared for and sacrificed according to the Sanofi-Aventis international code of ethics and the international principles governing the care and treatment of laboratory animals (EEC Directive 86/609, DJL358, 1, 12 Dec. 1987). […] The contractions were recorded by computer with a data recording and analysis system (Power Lab, Chart 5) connected to isotonic transducers (Ugo Basile, Varese, Italy) via preamplifiers (Octal Bridge Amp). […] The pKb values for the antagonists were calculated according to the Cheng-Prusoff equation (Kenakin et al., Competitive Antagonism, Pharmacologic Analysis of Drug-Receptor Interaction, 3rd edition, 331-373, Philadelphia, New York; Raven: Lippincott, 1997).

T1 sequence (O08725 whole entry): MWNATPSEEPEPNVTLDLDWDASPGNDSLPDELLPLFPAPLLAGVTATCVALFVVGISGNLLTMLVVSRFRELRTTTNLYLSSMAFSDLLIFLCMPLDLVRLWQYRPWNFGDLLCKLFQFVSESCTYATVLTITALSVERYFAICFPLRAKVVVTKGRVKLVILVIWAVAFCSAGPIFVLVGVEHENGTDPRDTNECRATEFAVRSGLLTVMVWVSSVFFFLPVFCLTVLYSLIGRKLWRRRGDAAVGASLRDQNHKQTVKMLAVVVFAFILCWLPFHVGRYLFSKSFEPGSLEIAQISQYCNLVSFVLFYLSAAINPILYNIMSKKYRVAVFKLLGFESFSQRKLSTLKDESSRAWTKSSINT

| IC50 (ghrelin receptor) | melting point | Structure (SMILES) |
| --- | --- | --- |
| 1 nM | 158 to 162 °C | CCN1CCC(CC(=O)NC2(c3ccc(C(F)(F)F)cc3)C(=O)Nc3cc(Cl)cc(Cl)c32)CC1 (single isomer, unassigned; (+)) [Compound 2, (+)-N-[4,6-Dichloro-3-(4-trifluoromethylphenyl)-2-oxo-2,3-dihydro-1H-indol-3-yl]-2-(1-ethylpiperid-4-yl)acetamide] |
| 50 nM | 207.1 to 207.6 °C | CN1CCN(CC(=O)NC2(c3ccc(Cl)cc3)C(=O)Nc3cc(Cl)c(Cl)cc32)CC1 (single isomer, unassigned; (+)) [Compound 1, (+)-N-[5,6-Dichloro-3-(4-chlorophenyl)-2-oxo-2,3-dihydro-1H-indol-3-yl]-2-(4-methylpiperazin-1-yl)acetamide] |
